Data as given in patent US7202280B2, “Methods for the treatment and prevention of pancreatitis and for induction of liver regeneration” (priority 2002, dated 2007).

System: syngenic and metallothionein-SSAT mice
Test: Hepatic, pancreatic and renal polyamine concentration in syngenic and metallothionein-SSAT mice after analogue
Assay type: in vivo, mouse
Details: 24 h
Description: α-methylspermidine, Bis-α-methylspermine and α-methylspermine were administered in saline. […] The data are expressed as means ±S.D. For statistical analysis, the two-tailed Student's t test was used.

SMILES: CC(N)CCNCCCCN (stereo not drawn) [α-methylspermidine, 1-methylspermidine]
- hepatic N^1-Acetyl-spermidine (Sg mice, 50 mg/kg): 21.45 pmoles/mg tissue wet weight
- hepatic Spermidine (Sg mice, 50 mg/kg): 1018.24 pmoles/mg tissue wet weight
- hepatic Spermine (Sg mice, 50 mg/kg): 864.34 ± 90.79 ^++ pmoles/mg tissue wet weight
- hepatic α-Methyl-spermidine (Sg mice, 50 mg/kg): 394.01 pmoles/mg tissue wet weight
- pancreatic Putrescine (Sg mice, 50 mg/kg): 2.82 pmoles/mg tissue wet weight
- pancreatic Spermidine (Sg mice, 50 mg/kg): 6597.75 ± 1034.98 ^+ pmoles/mg tissue wet weight
- pancreatic Spermine (Sg mice, 50 mg/kg): 911.15 pmoles/mg tissue wet weight
- renal N^1-Acetylspermidine (Sg mice, 50 mg/kg): 36.67 pmoles/mg tissue wet weight
- renal Putrescine (Sg mice, 50 mg/kg): 45.91 pmoles/mg tissue wet weight
- renal Spermidine (Sg mice, 50 mg/kg): 315.36 ± 46.18 ^+ pmoles/mg tissue wet weight
- renal Spermine (Sg mice, 50 mg/kg): 856.32 ± 68.27 pmoles/mg tissue wet weight
- renal α-Methylspermidine (Sg mice, 50 mg/kg): 122.64 pmoles/mg tissue wet weight
- hepatic N^1-Acetyl-spermidine (Sg mice, 100 mg/kg): 12.90 pmoles/mg tissue wet weight
- hepatic Putrescine (Sg mice, 100 mg/kg): 15.36 pmoles/mg tissue wet weight
- hepatic Spermidine (Sg mice, 100 mg/kg): 729.82 pmoles/mg tissue wet weight
- hepatic Spermine (Sg mice, 100 mg/kg): 892.64 ± 79.24 ^++ pmoles/mg tissue wet weight
- hepatic α-Methyl-spermidine (Sg mice, 100 mg/kg): 461.44 pmoles/mg tissue wet weight
- pancreatic N^1-Acetyl-spermidine (Sg mice, 100 mg/kg): 66.33 pmoles/mg tissue wet weight
- pancreatic Spermidine (Sg mice, 100 mg/kg): 6089.81 ± 1039.94 ^++ pmoles/mg tissue wet weight
- pancreatic Spermine (Sg mice, 100 mg/kg): 815.33 pmoles/mg tissue wet weight
- renal N^1-Acetylspermidine (Sg mice, 100 mg/kg): 38.89 pmoles/mg tissue wet weight
- renal Putrescine (Sg mice, 100 mg/kg): 68.97 pmoles/mg tissue wet weight
- renal Spermidine (Sg mice, 100 mg/kg): 231.78 ± 25.15 pmoles/mg tissue wet weight
- renal Spermine (Sg mice, 100 mg/kg): 686.21 ± 75.94 ^+ pmoles/mg tissue wet weight
- renal α-Methylspermidine (Sg mice, 100 mg/kg): 146.37 pmoles/mg tissue wet weight
- hepatic N^1-Acetyl-spermidine (Sg mice, 150 mg/kg): 23.35 pmoles/mg tissue wet weight
- hepatic Spermidine (Sg mice, 150 mg/kg): 723.14 pmoles/mg tissue wet weight
- hepatic Spermine (Sg mice, 150 mg/kg): 739.53 ± 170.40 ^+ pmoles/mg tissue wet weight
- hepatic α-Methyl-spermidine (Sg mice, 150 mg/kg): 504.41 pmoles/mg tissue wet weight
- pancreatic Putrescine (Sg mice, 150 mg/kg): 1.66 pmoles/mg tissue wet weight
- pancreatic Spermidine (Sg mice, 150 mg/kg): 6345.88 ± 1026.88 ^++ pmoles/mg tissue wet weight
- pancreatic Spermine (Sg mice, 150 mg/kg): 833.73 pmoles/mg tissue wet weight
- renal N^1-Acetylspermidine (Sg mice, 150 mg/kg): 24.61 pmoles/mg tissue wet weight
- renal Putrescine (Sg mice, 150 mg/kg): 65.28 pmoles/mg tissue wet weight
- renal Spermidine (Sg mice, 150 mg/kg): 240.59 ± 28.71 pmoles/mg tissue wet weight
- renal Spermine (Sg mice, 150 mg/kg): 635.17 ± 42.35 pmoles/mg tissue wet weight
- renal α-Methylspermidine (Sg mice, 150 mg/kg): 175.49 pmoles/mg tissue wet weight
- hepatic N^1-Acetyl-spermidine (Sg mice, 250 mg/kg): 18.97 pmoles/mg tissue wet weight
- hepatic Putrescine (Sg mice, 250 mg/kg): 21.87 pmoles/mg tissue wet weight
- hepatic Spermidine (Sg mice, 250 mg/kg): 593.49 pmoles/mg tissue wet weight
- hepatic Spermine (Sg mice, 250 mg/kg): 854.77 ± 108.73 ^++ pmoles/mg tissue wet weight
- hepatic α-Methyl-spermidine (Sg mice, 250 mg/kg): 763.57 pmoles/mg tissue wet weight
- pancreatic Putrescine (Sg mice, 250 mg/kg): 158.82 pmoles/mg tissue wet weight
- pancreatic Spermidine (Sg mice, 250 mg/kg): 4773.64 ± 838.69 ^++ pmoles/mg tissue wet weight
- pancreatic Spermine (Sg mice, 250 mg/kg): 762.743 pmoles/mg tissue wet weight
- pancreatic α-Methyl-spermidine (Sg mice, 250 mg/kg): 1363.02 pmoles/mg tissue wet weight
- renal N^1-Acetylspermidine (Sg mice, 250 mg/kg): 31.10 pmoles/mg tissue wet weight
- renal Putrescine (Sg mice, 250 mg/kg): 41.84 pmoles/mg tissue wet weight
- renal Spermidine (Sg mice, 250 mg/kg): 225.57 ± 29.21 ^+ pmoles/mg tissue wet weight
- renal Spermine (Sg mice, 250 mg/kg): 518.89 ± 36.68 pmoles/mg tissue wet weight
- renal α-Methylspermidine (Sg mice, 250 mg/kg): 288.30 pmoles/mg tissue wet weight
- hepatic N^1-Acetyl-spermidine (Sg mice, 375 mg/kg): 31.64 pmoles/mg tissue wet weight
- hepatic Putrescine (Sg mice, 375 mg/kg): 29.37 pmoles/mg tissue wet weight
- hepatic Spermidine (Sg mice, 375 mg/kg): 370.29 pmoles/mg tissue wet weight
- hepatic Spermine (Sg mice, 375 mg/kg): 644.88 ± 183.36 ^+ pmoles/mg tissue wet weight
- hepatic α-Methyl-spermidine (Sg mice, 375 mg/kg): 1095.59 pmoles/mg tissue wet weight
- pancreatic N^1-Acetyl-spermidine (Sg mice, 375 mg/kg): 14.02 pmoles/mg tissue wet weight
- pancreatic Putrescine (Sg mice, 375 mg/kg): 726.66 pmoles/mg tissue wet weight
- pancreatic Spermidine (Sg mice, 375 mg/kg): 4073.3 ± 670.46^++ pmoles/mg tissue wet weight
- pancreatic Spermine (Sg mice, 375 mg/kg): 740.93 pmoles/mg tissue wet weight
- pancreatic α-Methyl-spermidine (Sg mice, 375 mg/kg): 1319.14 pmoles/mg tissue wet weight
- renal N^1-Acetylspermidine (Sg mice, 375 mg/kg): 27.40 pmoles/mg tissue wet weight
- renal Putrescine (Sg mice, 375 mg/kg): 58.59 pmoles/mg tissue wet weight
- renal Spermidine (Sg mice, 375 mg/kg): 189.46 ± 0.98 pmoles/mg tissue wet weight
- renal Spermine (Sg mice, 375 mg/kg): 454.49 ± 64.44 ^+ pmoles/mg tissue wet weight
- renal α-Methylspermidine (Sg mice, 375 mg/kg): 477.31 pmoles/mg tissue wet weight
- hepatic N^1-Acetyl-spermidine (Sg mice, 500 mg/kg): 133.00 pmoles/mg tissue wet weight
- hepatic Putrescine (Sg mice, 500 mg/kg): 119.33 pmoles/mg tissue wet weight
- hepatic Spermidine (Sg mice, 500 mg/kg): 273.13 pmoles/mg tissue wet weight
- hepatic Spermine (Sg mice, 500 mg/kg): 666.13 ± 188.21 pmoles/mg tissue wet weight
- hepatic α-Methyl-spermidine (Sg mice, 500 mg/kg): 1801.46 pmoles/mg tissue wet weight
- pancreatic N^1-Acetyl-spermidine (Sg mice, 500 mg/kg): 10.62 pmoles/mg tissue wet weight
- pancreatic Putrescine (Sg mice, 500 mg/kg): 812.54 pmoles/mg tissue wet weight
- pancreatic Spermidine (Sg mice, 500 mg/kg): 3669.36 ± 1235.66 pmoles/mg tissue wet weight
- pancreatic Spermine (Sg mice, 500 mg/kg): 652.17 pmoles/mg tissue wet weight
- pancreatic α-Methyl-spermidine (Sg mice, 500 mg/kg): 1273.3 pmoles/mg tissue wet weight
- renal N^1-Acetylspermidine (Sg mice, 500 mg/kg): 46.34 pmoles/mg tissue wet weight
- renal Putrescine (Sg mice, 500 mg/kg): 789.63 pmoles/mg tissue wet weight
- renal Spermidine (Sg mice, 500 mg/kg): 181.32 ± 28.81 pmoles/mg tissue wet weight
- renal Spermine (Sg mice, 500 mg/kg): 458.07 ± 107.68 pmoles/mg tissue wet weight
- renal α-Methylspermidine (Sg mice, 500 mg/kg): 1078.16 pmoles/mg tissue wet weight
- hepatic N^1-Acetyl-spermidine (Tg mice, 50 mg/kg): 245.16 pmoles/mg tissue wet weight
- hepatic Putrescine (Tg mice, 50 mg/kg): 1055.38 pmoles/mg tissue wet weight
- hepatic Spermidine (Tg mice, 50 mg/kg): 329.57 pmoles/mg tissue wet weight
- hepatic Spermine (Tg mice, 50 mg/kg): 103.26 ± 188.21 pmoles/mg tissue wet weight
- hepatic α-Methyl-spermidine (Tg mice, 50 mg/kg): 582.62 pmoles/mg tissue wet weight
- pancreatic N^1-Acetyl-spermidine (Tg mice, 50 mg/kg): 204.43 pmoles/mg tissue wet weight
- pancreatic Putrescine (Tg mice, 50 mg/kg): 4968.25 pmoles/mg tissue wet weight
- pancreatic Spermidine (Tg mice, 50 mg/kg): 1316.94 ± 248.44 pmoles/mg tissue wet weight
